Source: BindingDB's records for doi:10.1016/j.bmcl.2020.126965 (Australian National University, 2020)

Target: Nonstructural protein 3 (Zika virus, UniProt A0A024AXB9)
Assay: Binding affinity to Zika virus NS2B-NS3 protease

Chain of Nonstructural protein 3 (A0A024AXB9 whole entry): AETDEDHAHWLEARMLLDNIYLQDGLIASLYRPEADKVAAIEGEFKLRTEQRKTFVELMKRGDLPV

`CC1=CCC(C(=O)/N=C2\CC=C(S(=O)(=O)O)c3cc(S(=O)(=O)O)cc(S(=O)(=O)O)c32)=C/C1=N/C(=O)C1=CC=C/C(=N\C(=O)/N=C2\C=CC=C(C(=O)/N=C3/CC(C(=O)/N=C4\CC=C(S(=O)(=O)O)c5cc(S(=O)(=O)O)cc(S(=O)(=O)O)c54)=CC=C3C)C2)C1` gave an EC50 of 1.93 µM.
